We go through 14 compounds from patent publication US11530244B2, “Cyclic polypeptides for PCSK9 inhibition” (priority 2018, dated 2022).

SMILES strings stand for the structures. pIC50: −log10 of the molar value. Starred links: 1 amine or outer side, 2 acyl side, 3 side chain; linkers in the order of their positions; H or OH if unused. Positions of bridges follow the written chain, without caps; N, C: chain ends. Non-standard residues stand in square brackets, D forms with d. Residues, ends and D or L forms follow the SMILES beside them. Trp(5-F) = N[C@@H](Cc1c[nH]c2ccc(F)cc12)C(=O)O; dTrp(5-F) = N[C@H](Cc1c[nH]c2ccc(F)cc12)C(=O)O; Trp(7-aza) = N[C@@H](Cc1c[nH]c2ncccc12)C(=O)O; Phe(4-CH2NH2) = NCc1ccc(C[C@H](N)C(=O)O)cc1; Asp(3,3-Me2) = CC(C)(C(=O)O)[C@H](N)C(=O)O; X9 = CS[C@H]1C[C@@H](C(=O)[*:2])N([*:1])C1; X4 = O=C(CCSCc1cccc(CSCCN[*:1])c1)[*:2]; X27 = O=C([C@@H](N[*:1])C1(O)CC1)[*:2]; TBMB = c1c(C[*:1])cc(C[*:3])cc1C[*:2]; mXylylene = c1cc(C[*:1])cc(C[*:2])c1; Adipoyl = O=C(CCCCC(=O)[*:2])[*:1]; Val(3-OH) = CC(C)(O)[C@H](N)C(=O)O; X22 = Oc1cc(C[*:1])cc(C[*:2])c1; d(αMeP) = C[C@]1(C(=O)O)CCCN1; Tle = CC(C)(C)[C@H](N)C(=O)O; αMeP = C[C@@]1(C(=O)O)CCCN1; dDab = NCC[C@@H](N)C(=O)O; Orn = NCCC[C@H](N)C(=O)O; X2 = O=C(C[*:2])[*:1]; Mpa = O=C(O)CCS

The target in assay [1] is human PCSK9 / human LDLR EGFa domain interaction (Homo sapiens (Human), UniProt Q8NBP7). In words: TR-FRET assay of inhibition of the PCSK9-LDLR protein-protein interaction. To be noted: TR-FRET, 20 nM human PCSK9, 20 nM human LDLR EGFa domain, 2 hours room temperature; read-out: IC50. Type of assay: binding. In outline:
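Biotinylated PCSK9 (20 nM) and His-tagged LDLR EGFa domain (20 nM) were incubated 2 h at room temperature with 5 nM Ulight-streptavidin and 5 nM Eu-anti-His in HEPES/NaCl/CaCl2 buffer with 0.01% BSA and 0.01% P20. TR-FRET was read; half-maximal inhibitory concentrations came from 4-parameter dose-response fits.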

For another assay, the target named is PCSK9 (Homo sapiens (Human), UniProt Q8NBP7). The assay can be described thus: PCSK9 Alexa FRET Standard assay (displacement of AlexaFluor647 tagged cyclic peptide Reagent A). Type of assay: binding. The settings on record: PCSK9 Alexa FRET Standard assay, 0.5 nM PCSK9, 20 nM AF cyclic peptide Reagent A; read-out: IC50. In outline: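 TR-FRET displacement: 0.5 nM biotinylated PCSK9 with 1.25 nM Strep-Eu and 20 nM AlexaFluor-tagged cyclic peptide (final) in 50 mM HEPES pH 7.4, 0.15 M NaCl, 5 mM CaCl2, 0.01% BSA, 0.01% P20, ≥2 h at room temperature. IC50 from sigmoidal fit, converted to Ki via peptide KD; falling Eu counts flagged false positives.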
Sequence of PCSK9 (Q8NBP7 153-692): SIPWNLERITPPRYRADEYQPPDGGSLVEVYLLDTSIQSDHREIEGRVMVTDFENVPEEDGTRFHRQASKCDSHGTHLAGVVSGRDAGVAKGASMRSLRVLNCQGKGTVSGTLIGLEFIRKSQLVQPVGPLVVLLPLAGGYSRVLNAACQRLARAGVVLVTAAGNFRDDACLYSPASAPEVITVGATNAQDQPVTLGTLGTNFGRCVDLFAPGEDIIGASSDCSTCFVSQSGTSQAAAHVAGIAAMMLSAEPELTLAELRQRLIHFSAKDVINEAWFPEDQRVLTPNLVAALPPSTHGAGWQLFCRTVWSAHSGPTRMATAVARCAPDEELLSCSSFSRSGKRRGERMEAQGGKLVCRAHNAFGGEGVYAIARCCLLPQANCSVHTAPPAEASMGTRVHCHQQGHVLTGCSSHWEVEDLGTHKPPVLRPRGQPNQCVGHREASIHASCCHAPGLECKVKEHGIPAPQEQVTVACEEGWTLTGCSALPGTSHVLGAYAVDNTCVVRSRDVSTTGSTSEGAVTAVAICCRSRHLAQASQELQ

Sequence of human PCSK9 / human LDLR EGFa domain interaction (Q8NBP7 153-692): as above
Sequence of human PCSK9 / human LDLR EGFa domain interaction (Q8NBP7 31-152 partner): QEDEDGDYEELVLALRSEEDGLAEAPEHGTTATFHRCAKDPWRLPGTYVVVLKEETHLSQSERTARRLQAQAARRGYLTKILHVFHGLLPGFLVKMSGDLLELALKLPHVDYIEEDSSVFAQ

For `C[C@@]12CCCN1C(=O)[C@H](Cc1ccc(O)cc1)NC(=O)[C@H](Cc1cnc[nH]1)NC(=O)[C@H](CC(=O)O)NC(=O)[C@H](Cc1c[nH]c3ccc(F)cc13)NC(=O)[C@H](Cc1c[nH]c3ccc(F)cc13)NC(=O)CNC(=O)[C@@H](CCN)NC(=O)CCSCc1cccc(c1)CSC[C@@H](C(N)=O)NC2=O` [Compound 355] ([Mpa][dDab]G[Trp(5-F)][Trp(5-F)]DHY[αMeP]C-NH2; linker 1-10 via mXylylene), the pIC50 (in assay [1]; on PCSK9) was 6.00 to 7.00 each time.
For the compound `Cc1cc2cc(c1)CSC[C@@H](C(N)=O)NC(=O)[C@]1(C)CCCN1C(=O)[C@H](Cc1ccc(O)cc1)NC(=O)[C@H](Cc1c[nH]cn1)NC(=O)[C@H](CC(=O)O)NC(=O)[C@H](Cc1c[nH]c3ccc(F)cc13)NC(=O)[C@H](Cc1c[nH]c3ccc(F)cc13)NC(=O)CNC(=O)[C@H](CCCCN)NC(=O)CCSC2` [Compound 357] ([Mpa]KG[Trp(5-F)][Trp(5-F)]DHY[αMeP]C-NH2; linker 1-10 via TBMB), the pIC50 (in assay [1]; on PCSK9) was 4.92 to 6.00 each time.
As to `C[C@@]12CCCN1C(=O)[C@H](Cc1ccc(O)cc1)NC(=O)[C@H](Cc1c[nH]cn1)NC(=O)[C@H](CC(=O)O)NC(=O)[C@H](Cc1c[nH]c3ccc(F)cc13)NC(=O)[C@H](Cc1c[nH]c3ccc(F)cc13)NC(=O)CNC(=O)[C@H](CCCCN)NC(=O)CCSCc1cc(O)cc(c1)CSC[C@@H](C(N)=O)NC2=O` [Compound 359] ([Mpa]KG[Trp(5-F)][Trp(5-F)]DHY[αMeP]C-NH2; linker 1-10 via X22), the pIC50 (in general, −log10 of the IC50, conventionally taken in molar units) in assay [1] was 7.00 to 10.00; on PCSK9 it was 6.00 to 7.00.
In the same order, the values of `C[C@@]12CCCN1C(=O)[C@H](Cc1c[nH]c3ncccc13)NC(=O)[C@H](Cc1cnc[nH]1)NC(=O)[C@H](CC(=O)O)NC(=O)[C@H](Cc1c[nH]c3ccc(F)cc13)NC(=O)[C@H](Cc1c[nH]c3ccc(F)cc13)NC(=O)CNC(=O)[C@H](CCCCN)NC(=O)CCSCc1cccc(c1)CSC[C@@H](C(N)=O)NC2=O` [Compound 360] ([Mpa]KG[Trp(5-F)][Trp(5-F)]DH[Trp(7-aza)][αMeP]C-NH2; linker 1-10 via mXylylene) are 7.00 to 10.00 and 6.00 to 7.00.
For `C[C@H]1NC(=O)[C@H](CCCCN)NC(=O)CCSCc2cccc(c2)CSC[C@@H](C(N)=O)NC(=O)[C@]2(C)CCCN2C(=O)[C@H](Cc2ccc(O)cc2)NC(=O)[C@H](Cc2cnc[nH]2)NC(=O)[C@H](C(C)(C)C(=O)O)NC(=O)[C@H](Cc2c[nH]c3ccc(F)cc23)NC(=O)[C@H](Cc2c[nH]c3ccc(F)cc23)NC1=O` [Compound 361] ([Mpa]K[dA][Trp(5-F)][Trp(5-F)][Asp(3,3-Me2)]HY[αMeP]C-NH2; linker 1-10 via mXylylene), the pIC50 is 7.00 to 10.00 in assay [1] and 6.00 to 7.00 on PCSK9.
Taken in the same sequence, the figures for `COc1ccc(C[C@H]2NC(=O)[C@@H](Cc3c[nH]cn3)NC(=O)[C@@H](CC(=O)O)NC(=O)[C@@H](Cc3c[nH]c4ccc(F)cc34)NC(=O)[C@@H](Cc3c[nH]c4ccc(F)cc34)NC(=O)[C@H](C(C)(C)C)NC(=O)[C@@H](CCCCN)NC(=O)CCSCc3cccc(c3)CSCCNC(=O)[C@@]3(C)CCCN3C2=O)cc1` [Compound 362] (cyclo([Tle][dTrp(5-F)][dTrp(5-F)][dD][dH][dY](Me)[d(αMeP)][X4][dK])) were 7.00 to 10.00 and 7.00 to 9.96.
Taken in the same sequence, the figures for `CS[C@H]1C[C@H]2C(=O)N[C@H](C(N)=O)CSCc3cccc(c3)CSCCC(=O)N[C@@H](CCCCN)C(=O)NCC(=O)N[C@@H](Cc3c[nH]c4ccc(F)cc34)C(=O)N[C@@H](Cc3c[nH]c4ccc(F)cc34)C(=O)N[C@@H](CC(=O)O)C(=O)N[C@@H](Cc3cnc[nH]3)C(=O)N[C@@H](Cc3ccc(O)cc3)C(=O)N2C1` [Compound 363] ([Mpa]KG[Trp(5-F)][Trp(5-F)]DHY[X9]C-NH2; linker 1-10 via mXylylene) were 7.00 to 10.00 and 6.00 to 7.00.
Take `CC(=O)N[C@H]1CCCNC(=O)COc2ccc(cc2)C[C@@H](C(N)=O)NC(=O)[C@]2(C)CCCN2C(=O)[C@H](Cc2ccc(O)cc2)NC(=O)[C@H](Cc2cnc[nH]2)NC(=O)[C@H](CC(=O)O)NC(=O)[C@H](Cc2c[nH]c3ccc(F)cc23)NC(=O)[C@H](Cc2c[nH]c3ccc(F)cc23)NC(=O)CNC(=O)[C@H](C)NC1=O` [Compound 364] (Ac-[Orn]AG[Trp(5-F)][Trp(5-F)]DHY[αMeP]Y-NH2; linker 1-10 via X2): the pIC50 (in assay [1]; on PCSK9) was 6.00 to 7.00 throughout.
Turning to `COc1ccc(C[C@@H]2NC(=O)[C@H](Cc3cnc[nH]3)NC(=O)[C@H](CC(=O)O)NC(=O)[C@H](Cc3c[nH]c4cc(F)ccc34)NC(=O)[C@H](Cc3c[nH]c4ccc(F)cc34)NC(=O)[C@@H](C)NC(=O)[C@H](CCCCN)NC(=O)CCCc3cn(nn3)-c3ccc(cc3)C[C@@H](C(N)=O)NC(=O)[C@]3(C)CCCN3C2=O)cc1` [Compound 369], the pIC50 in assay [1] is 7.00 to 10.00; at PCSK9 it was 6.00 to 7.00.
As for `C[C@@H]1NC(=O)CCCCC(=O)NCc2ccc(cc2)C[C@@H](C(N)=O)NC(=O)[C@]2(C)CCCN2C(=O)[C@H](Cc2ccc(O)cc2)NC(=O)[C@H](Cc2cnc[nH]2)NC(=O)[C@H](CC(=O)O)NC(=O)[C@H](Cc2c[nH]c3ccc(F)cc23)NC(=O)[C@H](Cc2c[nH]c3ccc(F)cc23)NC(=O)CNC1=O` [Compound 370] (AG[Trp(5-F)][Trp(5-F)]DHY[αMeP][Phe(4-CH2NH2)]-NH2; linker N-9 via Adipoyl), the negative logarithm of the IC50 (pIC50) was 7.00 to 10.00 in assay [1] and 6.00 to 7.00 at PCSK9.
In the same order, the values of `COc1ccc(C[C@@H]2NC(=O)[C@H](Cc3cnc[nH]3)NC(=O)[C@H](CC(=O)O)NC(=O)[C@H](Cc3c[nH]c4ccc(F)cc34)NC(=O)[C@H](Cc3c[nH]c4ccc(F)cc34)NC(=O)[C@@H](C)NC(=O)[C@H](CCCCN)NC(=O)[C@@H](NC(C)=O)CCc3cn(nn3)-c3ccc(cc3)C[C@@H](C(N)=O)NC(=O)[C@]3(C)CCCN3C2=O)cc1` [Compound 371] are 7.00 to 10.00 and 7.00 to 9.96.
Consider `C[C@@]12CCCN1C(=O)[C@H](Cc1ccc(O)cc1)NC(=O)[C@H](Cc1cnc[nH]1)NC(=O)[C@H](CC(=O)O)NC(=O)[C@H](Cc1c[nH]c3ccc(F)cc13)NC(=O)[C@H](Cc1c[nH]c3ccc(F)cc13)NC(=O)CNC(=O)[C@H](C1(O)CC1)NC(=O)CCSCc1cccc(c1)CSC[C@@H](C(N)=O)NC2=O` [Compound 372] ([Mpa][X27]G[Trp(5-F)][Trp(5-F)]DHY[αMeP]C-NH2; linker 1-10 via mXylylene), for which the pIC50 (in assay [1]; on PCSK9) was 6.00 to 7.00 throughout.
In the case of `CC(C)C[C@H]1NC(=O)[C@H](CCCCN)NC(=O)CCSCc2cccc(c2)CSC[C@@H](C(N)=O)NC(=O)[C@]2(C)CCCN2C(=O)[C@H](Cc2ccc(O)cc2)NC(=O)[C@H](Cc2cnc[nH]2)NC(=O)[C@H](CC(=O)O)NC(=O)[C@H](Cc2c[nH]c3ccc(F)cc23)NC(=O)[C@H](Cc2c[nH]c3ccc(F)cc23)NC1=O` [Compound 373] ([Mpa]K[dL][Trp(5-F)][Trp(5-F)]DHY[αMeP]C-NH2; linker 1-10 via mXylylene), the pIC50 is 7.00 to 10.00 in assay [1] and 6.00 to 7.00 at PCSK9.
Taken in the same sequence, the figures for `CC(C)(O)[C@@H]1NC(=O)CCSCc2cccc(c2)CSC[C@@H](C(N)=O)NC(=O)[C@]2(C)CCCN2C(=O)[C@H](Cc2ccc(O)cc2)NC(=O)[C@H](Cc2cnc[nH]2)NC(=O)[C@H](CC(=O)O)NC(=O)[C@H](Cc2c[nH]c3ccc(F)cc23)NC(=O)[C@H](Cc2c[nH]c3ccc(F)cc23)NC(=O)CNC1=O` [Compound 374] ([Mpa][Val(3-OH)]G[Trp(5-F)][Trp(5-F)]DHY[αMeP]C-NH2; linker 1-10 via mXylylene) were 7.00 to 10.00 and 6.00 to 7.00.
